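Tested at 5 concentrations; 48 h exposure; 96-well plates; endpoints linearly interpolated, else capped at highest concentration. GI50 = concentration required for 50% inhibition of growth. TGI denotes the concentration required for complete inhibition of growth.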
Key:
Test in all cases: DTP human tumour cell line panel, 48 h
[1] = test system: TK-10 renal
[2] = test system: SK-MEL-2 melanoma
[3] = test system: A549 NSCLC
[4] = test system: RXF 393 renal
[5] = test system: HOP-92 NSCLC
[6] = test system: SNB-75 CNS
[7] = test system: K-562 leukemia
[8] = test system: KM12 colon
[9] = test system: T-47D breast
[10] = test system: PC-3 prostate

SMILES	TGI [1] [µM]	TGI [2] [µM]	TGI [3] [µM]	TGI [4] [µM]	TGI [5] [µM]	TGI [6] [µM]	TGI [7] [µM]	TGI [8] [µM]	GI50 [9] [µM]	TGI [9] [µM]	GI50 [10] [µM]	TGI [10] [µM]	GI50 [1] [µM]	GI50 [2] [µM]	GI50 [3] [µM]	GI50 [5] [µM]	GI50 [6] [µM]	GI50 [7] [µM]	GI50 [8] [µM]	GI50 [4] [µM]
CN(c1ccccc1)c1c(Cl)c(=O)oc2c1ccc1occc12	> 100	> 100	> 100	> 100	> 100	> 100	> 100													
CCOC(=O)C1(C)CCCCC(=O)N1 (stereo unspecified)	> 100		> 100	> 100	> 100	> 100	> 100													
O=P(O)(O)C1(P(=O)(O)O)CC1	> 100	> 100	> 100	> 100		> 100	> 100	> 100												
COc1cccc(/C=C2\COc3ccc(-c4ccccc4)cc3C2=O)c1	5.03	5.27	18.7		9.41	4.8	> 100		2.03	4.98	2.87	16.2	2.35	2.38	3.17	2.34	1.99	3.32		
CCn1c(-c2nonc2N)nc2cncc(C(=O)N3CC[C@H](N)C3)c21	9.22	> 25	> 25	> 25		> 7.84	> 25	> 25	24.9	> 25	> 25	> 25	0.549	> 25	7.29		0.319	> 25	> 25	> 6.57
COc1cc(CCc2ccc(N)cc2)cc(OC)c1OC	> 100	82.6	> 100	> 91.1	> 100	> 100	> 100	> 100												
O=C(CC(Cl)=C(Cl)Cl)c1cccc(Cl)c1Cl	> 100	> 100	> 100	> 100	> 100			> 100	42.5	> 100	78.3	> 100	28.2	> 100	> 100	61			> 100	> 100
CCCCCCC[CH2][Sn]1([CH2]CCCCCCC)[O]C(=O)c2cccnc2[O]1	> 100	> 100	> 100	> 100	> 100	> 100	> 100	> 100					> 100	> 100	> 100	> 100	> 100	> 100	> 100	> 100
ClC(Cl)[Si]12OCCN(CCO1)CCO2	> 100	> 100	> 100	> 100	> 100	> 100	> 100	> 100												
COc1cc2nc3cc([N+](=O)[O-])ccc3c(NCCNCC(C)(C)O)c2cc1OC	5.43	1.75	5.64	2.87	2.43	2.05		2.97	0.437	2.91	0.581	2.47	1.7	0.432	1.22	0.503	0.608		0.698	1.07
CCSc1c2ccccc2c(-c2nc(F)nc(F)n2)n1CCc1ccccc1	> 100	> 100	> 100	> 100	> 100		> 100	> 100												
CCOC(=O)COc1ccc2c(C)cc(=O)oc2c1		> 100	> 100	> 100	> 100	> 100	> 100	> 100		> 100		> 100								
C[C@]12CCC3[C@@H](CC[C@@H]4c5nonc5CC[C@]34C)C1CC[C@@H]2O (stereo partly specified)	> 100	48.3	85.2	69.6	57.7	77.8	> 100	> 100												
CC[C@H](C)[C@H](NC(=O)CN(C)C)C(=O)N(C)[C@H](C[C@@H](OC(C)=O)c1nc(C(=O)NC23CC(C(=O)OC)(C2)C3)cs1)C(C)C	> 25	> 25	> 25		> 25	> 25	> 25	> 25	> 25	> 25	0.804	> 25	> 25	1.51	1.62	> 25	0.0883	0.0733	0.478	
COc1cccc(-c2cc(=O)c3ccccc3[nH]2)c1	> 100	> 100	> 100	21		> 100	> 100	> 48.4												
COc1cc2c3c(n(C)c(=O)c2cc1OC)-c1ccc(C#N)cc1C3=O	> 100	> 100	> 100	> 100	> 100		> 100	> 100	91.9	> 100	> 100	> 100	> 100	> 100	> 100	> 100		> 100	> 100	> 100
Cc1ccc(S(=O)(=O)NC(CN)C(=O)O)cc1 (stereo unspecified)	> 100	> 100	> 100	> 100	> 100	> 100		> 100		> 100		> 100								
Nc1c(Cl)ncnc1NCCCNc1ncnc(Cl)c1N	> 100	> 100	> 100	> 100	> 100		> 100	> 100												
CN(C)C(=S)SCC(=O)Nc1ccccc1		> 100	> 100	> 100	> 100	> 100	> 100	> 100		> 100										

Reference: PubChem BioAssay (NCI)
